# Tests used:
# UCH37 = target: T1, UCH37 (Homo sapiens, UniProt Q9Y5K5); assay: d5/d0-NEM differential cysteine labeling LC-MS/MS on recombinant UCH37/ADRM1; also Ub-Rho110MP hydrolysis inhibition and activity-probe competition; type: binding
# T1 construct: gene UCHL5; Human UCH37 (isoform 1) with an N-terminal 6x histidine tag; with ADRM1 (RPN13)
# USP3 = target: T2, USP3 (Homo sapiens, UniProt Q9Y6I4); assay: Biotin-Ub-PA/VME activity-probe labeling with immunoblot after treatment of HEK293T cells; SILAC-MS in HeLa lysate; type: cell-based
# T2 sequence (Q9Y6I4 1-520): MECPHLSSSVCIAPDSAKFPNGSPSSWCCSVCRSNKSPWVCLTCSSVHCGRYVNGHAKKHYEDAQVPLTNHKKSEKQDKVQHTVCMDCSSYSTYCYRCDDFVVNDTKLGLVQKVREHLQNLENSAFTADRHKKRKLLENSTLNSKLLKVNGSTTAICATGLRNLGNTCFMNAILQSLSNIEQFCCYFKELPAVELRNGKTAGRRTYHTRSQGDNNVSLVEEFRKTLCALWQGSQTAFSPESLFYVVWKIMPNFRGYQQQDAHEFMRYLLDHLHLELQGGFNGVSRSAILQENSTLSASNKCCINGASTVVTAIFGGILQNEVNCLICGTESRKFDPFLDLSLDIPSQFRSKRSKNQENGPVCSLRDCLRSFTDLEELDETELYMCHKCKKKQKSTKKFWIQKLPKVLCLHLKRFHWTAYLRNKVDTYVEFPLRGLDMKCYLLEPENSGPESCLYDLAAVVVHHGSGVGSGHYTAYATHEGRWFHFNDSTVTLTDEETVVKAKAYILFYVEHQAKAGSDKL
# USP1 = target: T3, USP1 (Homo sapiens, UniProt O94782); assay: K63-linked di-ubiquitin gel-based hydrolysis assay with purified USP1/UAF1; also probe labeling in cells and SILAC-MS; type: biochemical
# T3 construct: recombinant human His6-USP1/UAF1 complex; with UAF1
# Excerpt: K63-linked di-ubiquitin gel-based hydrolysis assay with purified USP1/UAF1; also probe labeling in cells and SILAC-MS on USP1 | hydrolysis of di-Ub by purified USP1 in complex with its activator UAF1 ... Dose dependent inhibition was observed
# VCPIP1 = target: T4, VCPIP1 (Homo sapiens, UniProt Q96JH7); assay: SILAC-MS competitive activity profiling (biotin-Ub-PA/VME) in HeLa lysate, […] PEITC; type: cell-based
# T4 sequence (Q96JH7 1-1222): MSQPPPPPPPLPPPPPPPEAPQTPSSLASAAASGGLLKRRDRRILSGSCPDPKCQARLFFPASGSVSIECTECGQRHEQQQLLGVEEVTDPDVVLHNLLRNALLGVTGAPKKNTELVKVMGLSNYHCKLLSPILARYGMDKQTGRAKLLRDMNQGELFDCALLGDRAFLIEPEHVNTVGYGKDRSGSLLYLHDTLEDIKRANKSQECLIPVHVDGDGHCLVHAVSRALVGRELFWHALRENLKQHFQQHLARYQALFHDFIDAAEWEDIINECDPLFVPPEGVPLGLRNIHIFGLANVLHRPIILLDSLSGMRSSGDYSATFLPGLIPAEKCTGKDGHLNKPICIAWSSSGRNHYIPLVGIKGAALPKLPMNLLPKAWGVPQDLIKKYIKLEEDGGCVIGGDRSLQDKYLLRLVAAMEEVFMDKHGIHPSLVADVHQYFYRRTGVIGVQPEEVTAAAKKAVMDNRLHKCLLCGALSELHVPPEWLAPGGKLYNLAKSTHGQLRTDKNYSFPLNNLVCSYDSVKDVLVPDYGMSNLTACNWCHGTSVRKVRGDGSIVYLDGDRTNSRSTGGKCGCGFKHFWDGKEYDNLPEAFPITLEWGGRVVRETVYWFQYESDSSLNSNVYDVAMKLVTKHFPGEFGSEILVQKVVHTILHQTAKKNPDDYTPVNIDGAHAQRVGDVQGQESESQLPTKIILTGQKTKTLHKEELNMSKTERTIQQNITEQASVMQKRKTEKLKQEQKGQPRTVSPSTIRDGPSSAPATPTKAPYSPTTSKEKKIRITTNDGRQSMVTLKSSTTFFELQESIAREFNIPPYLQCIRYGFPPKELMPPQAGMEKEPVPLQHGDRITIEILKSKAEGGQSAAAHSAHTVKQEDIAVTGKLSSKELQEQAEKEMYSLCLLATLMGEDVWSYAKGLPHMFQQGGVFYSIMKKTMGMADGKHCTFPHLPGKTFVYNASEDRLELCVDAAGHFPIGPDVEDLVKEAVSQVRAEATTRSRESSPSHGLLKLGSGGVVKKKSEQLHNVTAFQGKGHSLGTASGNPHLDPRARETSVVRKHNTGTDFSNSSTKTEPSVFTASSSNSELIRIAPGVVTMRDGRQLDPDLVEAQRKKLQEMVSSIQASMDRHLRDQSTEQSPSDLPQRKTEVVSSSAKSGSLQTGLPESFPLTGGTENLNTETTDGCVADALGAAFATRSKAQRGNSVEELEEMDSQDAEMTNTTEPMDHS
# USP16 = USP16 (Homo sapiens, UniProt Q9Y5T5); assay: as above; type: cell-based
# USP16, sequence (Q9Y5T5 whole entry): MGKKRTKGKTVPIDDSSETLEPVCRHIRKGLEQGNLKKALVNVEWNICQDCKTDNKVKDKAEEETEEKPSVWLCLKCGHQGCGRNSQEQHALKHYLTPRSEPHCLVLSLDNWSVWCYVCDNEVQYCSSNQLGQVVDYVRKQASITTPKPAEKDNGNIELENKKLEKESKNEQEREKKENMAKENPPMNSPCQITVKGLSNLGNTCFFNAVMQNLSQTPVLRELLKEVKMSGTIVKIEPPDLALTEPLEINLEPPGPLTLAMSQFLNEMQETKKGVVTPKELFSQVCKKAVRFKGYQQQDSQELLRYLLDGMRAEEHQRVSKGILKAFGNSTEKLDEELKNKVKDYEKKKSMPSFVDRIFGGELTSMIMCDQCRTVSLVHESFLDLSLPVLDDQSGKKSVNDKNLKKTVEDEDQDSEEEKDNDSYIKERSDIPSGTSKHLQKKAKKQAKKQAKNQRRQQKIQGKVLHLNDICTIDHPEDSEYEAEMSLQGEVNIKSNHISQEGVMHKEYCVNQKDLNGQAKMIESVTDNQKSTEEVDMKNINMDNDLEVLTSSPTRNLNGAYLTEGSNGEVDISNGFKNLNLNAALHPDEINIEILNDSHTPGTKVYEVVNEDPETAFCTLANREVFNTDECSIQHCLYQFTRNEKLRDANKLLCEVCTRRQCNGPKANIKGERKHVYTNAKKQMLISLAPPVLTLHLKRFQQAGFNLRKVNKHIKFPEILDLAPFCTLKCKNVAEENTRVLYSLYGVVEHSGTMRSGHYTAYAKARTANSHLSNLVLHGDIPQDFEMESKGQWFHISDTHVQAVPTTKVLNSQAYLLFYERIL
# T1 sequence (Q16186 2-407): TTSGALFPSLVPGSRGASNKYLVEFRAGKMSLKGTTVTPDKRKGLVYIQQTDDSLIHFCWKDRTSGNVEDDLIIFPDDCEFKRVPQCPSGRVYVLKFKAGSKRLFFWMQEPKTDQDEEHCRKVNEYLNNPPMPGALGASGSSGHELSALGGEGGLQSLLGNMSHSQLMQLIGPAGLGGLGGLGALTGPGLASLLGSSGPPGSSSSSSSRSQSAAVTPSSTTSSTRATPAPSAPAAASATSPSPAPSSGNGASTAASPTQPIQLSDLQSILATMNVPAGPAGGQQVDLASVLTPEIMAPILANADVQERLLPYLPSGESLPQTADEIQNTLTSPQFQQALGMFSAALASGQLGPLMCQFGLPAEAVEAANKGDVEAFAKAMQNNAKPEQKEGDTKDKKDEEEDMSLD
# T1 sequence (Q9Y5K5 whole entry, canonical isoform): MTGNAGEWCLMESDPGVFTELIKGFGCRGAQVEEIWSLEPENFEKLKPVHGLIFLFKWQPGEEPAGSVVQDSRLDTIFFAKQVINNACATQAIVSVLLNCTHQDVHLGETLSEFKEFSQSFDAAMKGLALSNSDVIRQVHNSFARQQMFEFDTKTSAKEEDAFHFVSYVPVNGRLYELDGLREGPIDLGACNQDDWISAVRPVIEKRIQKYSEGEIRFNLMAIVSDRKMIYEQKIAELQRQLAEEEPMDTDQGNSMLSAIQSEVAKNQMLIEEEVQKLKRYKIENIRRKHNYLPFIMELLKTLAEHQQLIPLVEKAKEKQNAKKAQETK
# T3 sequence (O94782 whole entry): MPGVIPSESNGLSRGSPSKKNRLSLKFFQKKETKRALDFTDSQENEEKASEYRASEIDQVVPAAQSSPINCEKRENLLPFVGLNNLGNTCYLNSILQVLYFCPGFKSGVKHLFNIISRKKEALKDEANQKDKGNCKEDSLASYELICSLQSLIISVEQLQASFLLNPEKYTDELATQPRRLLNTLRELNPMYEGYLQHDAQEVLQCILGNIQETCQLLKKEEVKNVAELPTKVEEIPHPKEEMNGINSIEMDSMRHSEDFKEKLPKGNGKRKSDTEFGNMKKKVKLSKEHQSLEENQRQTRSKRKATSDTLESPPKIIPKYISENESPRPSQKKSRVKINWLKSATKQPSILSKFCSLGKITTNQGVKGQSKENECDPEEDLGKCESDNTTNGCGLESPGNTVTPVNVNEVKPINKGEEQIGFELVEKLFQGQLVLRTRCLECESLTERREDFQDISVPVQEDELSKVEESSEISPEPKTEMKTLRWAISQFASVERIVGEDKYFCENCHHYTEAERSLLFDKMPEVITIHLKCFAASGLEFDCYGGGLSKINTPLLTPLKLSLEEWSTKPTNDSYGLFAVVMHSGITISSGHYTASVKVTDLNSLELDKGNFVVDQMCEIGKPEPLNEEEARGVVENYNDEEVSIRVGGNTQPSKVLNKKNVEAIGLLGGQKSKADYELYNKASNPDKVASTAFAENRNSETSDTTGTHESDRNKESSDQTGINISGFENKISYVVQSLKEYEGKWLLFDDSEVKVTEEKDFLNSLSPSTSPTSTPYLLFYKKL
# T3 sequence (Q8TAF3 whole entry partner): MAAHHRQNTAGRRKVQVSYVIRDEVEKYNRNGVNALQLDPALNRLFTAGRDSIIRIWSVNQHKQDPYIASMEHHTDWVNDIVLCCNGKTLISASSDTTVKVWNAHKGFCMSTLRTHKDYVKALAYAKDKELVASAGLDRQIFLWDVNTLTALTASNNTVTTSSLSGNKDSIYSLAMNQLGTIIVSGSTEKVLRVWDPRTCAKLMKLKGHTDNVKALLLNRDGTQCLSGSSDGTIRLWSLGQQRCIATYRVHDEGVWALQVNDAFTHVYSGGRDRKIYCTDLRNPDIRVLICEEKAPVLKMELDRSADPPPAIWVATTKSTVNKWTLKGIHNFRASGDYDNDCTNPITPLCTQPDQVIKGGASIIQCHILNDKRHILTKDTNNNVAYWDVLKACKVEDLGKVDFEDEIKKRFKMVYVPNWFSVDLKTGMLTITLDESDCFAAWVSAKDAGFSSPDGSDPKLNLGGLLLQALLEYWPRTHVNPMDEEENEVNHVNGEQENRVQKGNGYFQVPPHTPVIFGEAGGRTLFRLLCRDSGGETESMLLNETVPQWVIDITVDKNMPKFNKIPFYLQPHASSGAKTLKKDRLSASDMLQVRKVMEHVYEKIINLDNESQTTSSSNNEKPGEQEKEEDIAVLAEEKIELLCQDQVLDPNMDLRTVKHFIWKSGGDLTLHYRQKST
structure (smiles),measurement,setting,value
S=C=NCCc1ccccc1 [PEITC],d5/d0-NEM differential cysteine labeling LC-MS/MS on recombinant UCH37/ADRM1; al,UCH37,"increase in d0-NEM labeling at Cys88, indicating that the active-site cysteine is the site of PEITC modification"
same,Biotin-Ub-PA/VME activity-probe labeling with immunoblot after treatment of HEK2,USP3,inhibition of USP3 by PEITC in living cells was confirmed by observing the molecular shift upon probe labeling
same,K63-linked di-ubiquitin gel-based hydrolysis assay with purified USP1/UAF1; also,USP1,hydrolysis of di-Ub by purified USP1 in complex with its activator UAF1 ... Dose dependent inhibition was observed
same,"SILAC-MS competitive activity profiling (biotin-Ub-PA/VME) in HeLa lysate, 75 μM",VCPIP1,the inhibition of VCPIP1 by PEITC is the first report of inhibition of an OTU domain DUB
same,"SILAC-MS competitive activity profiling (biotin-Ub-PA/VME) in HeLa lysate, 75 μM",USP16,"USP1, USP3, USP16, USP48 and VCPIP1 were only identified in the absence of PEITC"
